Measured values published in patent publication US20230293599A1, “BACTERIAL COMPOSITIONS WITH ANTI-INFLAMMATORY ACTIVITY” (Universiteit Gent, priority 2020, published 2023).
Read-outs that look alike come from different tables or passages of the source.

Experiments:
R. gilardii = test: Biolog Phenotype Microarray PM1-2 growth on carbon sources; format: cell-based, Roseomonas gilardii; conditions: 35 hours, absorbance 590 nm, n = 1; cells without values AUC < 50
Procedure: (§1) Using Phenotype Microarray (PM) panels (Biolog), the influence of 190 carbon sources on the growth of the potential probiotic species R. mucilaginosa, R. dentocariosa, R. gilardii, G. haemolysans, and common respiratory pathogens P. aeruginosa, and S. aureus was determined. PM1 and PM2 panels (Biolog) were inoculated according to the manufacturer's instructions. Growth curves were generated for 35 hours by measuring the absorbance at 590 nm using an EnVision (Perkin Elmer) plate reader.

P. aeruginosa = test: as above; format: cell-based, Pseudomonas aeruginosa; conditions: 35 hours, absorbance 590 nm, n = 1; cells without values AUC < 50
Outline: (§2)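 Growth on 190 carbon sources in Biolog PM1 and PM2 panels, inoculated per manufacturer's protocol. Growth curves followed for 35 hours by absorbance at 590 nm.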

R. mucilaginosa = test: as above; format: cell-based, Rothia mucilaginosa; conditions: 35 hours, absorbance 590 nm, n = 1; cells without values AUC < 50
Procedure: as §1

R. dentocariosa = test: as above; format: cell-based, Rothia dentocariosa; conditions: 35 hours, absorbance 590 nm, n = 1; cells without values AUC < 50
Procedure: as §1

S. aureus = format: cell-based, Staphylococcus aureus
Outline: as §2

G. haemolysans = test: Biolog Phenotype Microarray PM1-2 growth on carbon sources; format: cell-based, Gemella haemolysans; conditions: 35 hours, absorbance 590 nm, n = 1; cells without values AUC < 50
Procedure: as §1

NF-κB pathway = test: NF-κB-luciferase reporter 3-D A549 cells stimulated with LPS (Example 2); format: cell-based, human; conditions: acetate at 28.3 mM and 18.0 mM, 4-hour incubation (FIG. 10)
Procedure: 3-D cells of the human adenocarcinoma alveolar lung epithelial cell line A549 transfected with an NF-κB-luciferase reporter (BPS Bioscience, San Diego, CA) were prepared as described previously for A549 cells (Crabbé et al., 2016; Barrila et al., 2010; Harris et al. 2007; Chen et a., 2019). Briefly, a monolayer of NF-κB-A549 cells was grown in T75 cell culture flasks containing GTSF-2 medium (HyClone, Logan, UT) supplemented with 1.5 g/L sodium bicarbonate (Sigma-Aldrich), 10% fetal bovine serum (FBS, Life technologies), 2.5 mg/L insulin transferring sodium selenite (Lonza) and 1% penicillin-streptomycin (pen-strep, Life Technologies) at 37° C. under 5% CO2. At confluence, the cells were seeded in the Rotating Wall Vessel (RWV) bioreactor with type-1 collagen coated dextran beads at a cell to bead ratio of 2:1 and were cultured for 11 to 14 days. […]
The NF-κB pathway was activated in 3-D NF-κB -A549 cells by 4 hours stimulation with LPS (100 μg/mL) in the presence or absence (positive control) of each of the isolates (Table 1) at varying multiplicity of infection (MOI) starting from an MOI of 100 to an MOI of 1.56 by performing 1:2 serial dilutions. […] After 4 hours incubation, 3-D epithelial cells containing the NF-κB -luciferase reporter were transferred to a black 96-well plate for analysis of luminescence. […] Luminescence was measured by an EnVision (Perkin Elmer) luminometer.

## O=C[C@H](O)[C@H](O)[C@@H](O)CO [L-Lyxose]
R. gilardii
  AUC of growth curve, R. gilardii: 765.9
P. aeruginosa
  AUC of growth curve, P. aeruginosa: 1393.5
R. mucilaginosa
  AUC of growth curve, R. mucilaginosa: 377.5
R. dentocariosa
  AUC of growth curve, R. dentocariosa: 474.8
S. aureus
  AUC of growth curve, S. aureus: 308.4
G. haemolysans
  AUC of growth curve, G. haemolysans: 430.7

## C[C@H](O)[C@H](O)[C@@H](O)[C@@H](O)C=O [L-Rhamnose]
R. gilardii
  AUC of growth curve, R. gilardii: 178.6
P. aeruginosa
  AUC of growth curve, P. aeruginosa: 265.3
R. mucilaginosa
  AUC of growth curve, R. mucilaginosa: 197.8
R. dentocariosa
  AUC of growth curve, R. dentocariosa: 149.9
S. aureus
  AUC of growth curve, S. aureus: 423.5
G. haemolysans
  AUC of growth curve, G. haemolysans: 104.6

## CC(=O)C(=O)O [Pyruvic Acid]
R. gilardii
  AUC of growth curve, R. gilardii: 215.7
P. aeruginosa
  AUC of growth curve, P. aeruginosa: 877.9
R. mucilaginosa
  AUC of growth curve, R. mucilaginosa: 205.5
R. dentocariosa
  AUC of growth curve, R. dentocariosa: 343.3
S. aureus
  AUC of growth curve, S. aureus: 763.0
G. haemolysans
  AUC of growth curve, G. haemolysans: 552.9

## CC(=O)O [acetate]
NF-κB pathway
  effect on LPS-stimulated NF-κB pathway activation: did not reduce

## OC[C@H]1O[C@H](O)[C@H](O)[C@@H](O)[C@@H]1O [α-D-Glucose]
R. gilardii
  AUC of growth curve, R. gilardii: 115.5
P. aeruginosa
  AUC of growth curve, P. aeruginosa: 830.2
R. mucilaginosa
  AUC of growth curve, R. mucilaginosa: 1068.2
R. dentocariosa
  AUC of growth curve, R. dentocariosa: 1288.0
S. aureus
  AUC of growth curve, S. aureus: 966.1
G. haemolysans
  AUC of growth curve, G. haemolysans: 1140.8

## Pectin
R. gilardii
  AUC of growth curve, R. gilardii: 141.7
P. aeruginosa
  AUC of growth curve, P. aeruginosa: 334.5
R. mucilaginosa
  AUC of growth curve, R. mucilaginosa: 199.5
R. dentocariosa
  AUC of growth curve, R. dentocariosa: 683.6
S. aureus; 35 hours, absorbance 590 nm, n = 1, cells without values AUC < 50
  AUC of growth curve, S. aureus: 996.1
G. haemolysans
  AUC of growth curve, G. haemolysans: 68.6
